From patent US6046218A, “Pyridine derivative and medicament containing the same as an effective ingredient” (SS Pharmaceutical Co., Ltd., priority 1996, dated 2000)
Counter-ions that a name gives are not always drawn.

System: IL-5 production
Assay: Test 3: inhibition of IL-5 production in human PBMC stimulated with ConA
Assay type: cell-based
Conditions: 10^-6 M, 10 μg/ml ConA, 48 hours, read-out: Inhibition rate of IL-5 production
Description: Test 3: Test on the inhibition of IL-5 production
The peripheral blood was collected from a normal volunteer and peripheral blood mononuclear cells (PBMC) of the human peripheral blood were separated therefrom by the specific gravity centrifugation method. They were suspended in an AIM-V medium and their cell count was adjusted. To individual wells of a 96-well incubation plate, 1×10^6 cells/ml of PBMC were poured, followed by the addition of a stimulator (10 μg/ml of ConA) and a medicament. The resulting mixture was incubated in 5% CO2 at 37° C. for 48 hours. After incubation, 50 μl of the supernatant were collected and subjected to measurement by a human IL-5 EIA kit (BIO SOURCE, INC.). The inhibition rate was calculated according to the following formula. [formula]

Row | SMILES | inhibition at 1 µM [%]
1 | CCCCCC(=O)/C=C/c1cc(OCCCCCC(=O)OCC)c(OCc2ccccc2)cn1 [Ex. 14, Ethyl 6-[5-benzyloxy-2-(3-oxo-1-octenyl)-4-pyridyloxy]hexanoate] | 90.2
2 | Oc1cnc(/C=C/C(O)c2ccccc2)cc1O (stereo not drawn) [Ex. 25, 4,5-Dihydroxy-2-(3-hydroxy-3-phenyl-1-propenyl)pyridine] | 97.5
3 | COC(=O)CCCCCOc1cc(/C=C/C(O)c2ccccc2)ncc1OC (stereo not drawn) [Ex. 26, Methyl 6-[2-(3-hydroxy-3-phenyl-1-propenyl)-5-methoxy-4-pyridyloxy]hexanoate] | 83.7
4 | CCOC(=O)CCCCCOc1cc(/C=C/C(O)c2ccccc2)ncc1OC (stereo not drawn) [Ex. 27, Ethyl 6-[2-(3-hydroxy-3-phenyl-1-propenyl)-5-methoxy-4-pyridyloxy]hexanoate] | 89.6
5 | COC(=O)CCCOc1cnc(/C=C/C(O)c2ccccc2)cc1OC (stereo not drawn) [Ex. 28, Methyl 4-[2-(3-hydroxy-3-phenyl-1-propenyl)-4-methoxy-5-pyridyloxy]butanoate] | 72.1
6 | COC(=O)CCCOc1cc(/C=C/C(O)c2ccccc2)ncc1OC (stereo not drawn) [Ex. 29, Methyl 4-[2-(3-hydroxy-3-phenyl-1-propenyl)-5-methoxy-4-pyridyloxy]butanoate] | 99.8
7 | COC(=O)CCCOc1cnc(/C=C/C(O)C2CCCC2)cc1OC (stereo not drawn) [Ex. 32, Methyl 4-[2-(3-cyclopentyl-3-hydroxy-1-propenyl)-4-methoxy-5-pyridyloxy]butanoate] | 80.7
8 | COc1cnc(/C=C/C(O)c2ccccc2)cc1OCCCC(=O)O (stereo not drawn) [Ex. 34, 4-[2-(3-Hydroxy-3-phenyl-1-propenyl)-5-methoxy-4-pyridyloxy]butanoic acid] | 61
9 | COc1cc(/C=C/C(O)C2CCCC2)ncc1OCCCC(=O)O (stereo not drawn) [Ex. 37, 4-[2-(3-Cyclopentyl-3-hydroxy-1-propenyl)-4-methoxy-5-pyridyloxy]butanoic acid hydrochloride] | 72.6
10 | CCCCCC(O)/C=C/c1cc(OCCCC(=O)O)c(O)cn1 (stereo not drawn) [Ex. 39, 4-[5-Hydroxy-2-(3-hydroxy-1-octenyl)-4-pyridyloxy]butanoic acid hydrochloride] | 97.6
11 | CCCCCC(O)/C=C/c1cc(OCCCC(=O)O)c(OC)cn1 (stereo not drawn) [Ex. 40, 4-[2-(3-Hydroxy-1-octenyl)-5-methoxy-4-pyridyloxy]butanoic acid hydrochloride] | 97.5
12 | CCCCCC(O)/C=C/c1cc(OC)c(OCCCCC(=O)O)cn1 (stereo not drawn) [Ex. 41, 5-[2-(3-Hydroxy-1-octenyl)-4-methoxy-5-pyridyloxy]pentanoic acid hydrochloride] | 91
13 | COC(=O)CCCCCOc1cc(/C=C/C(=O)c2ccccc2)ncc1OC [Ex. 42, methyl 6-[5-methoxy-2-(3-oxo-3-phenyl-1-propenyl)-4-pyridyloxy]hexanoate] | 77.5
14 | COc1cnc(/C=C/C(=O)c2ccccc2OC)cc1OC [Ex. 49] | 65
15 | COc1ccc(C(=O)/C=C/c2cc(OC)c(OC)cn2)cc1 [Ex. 50, 4,5-Dimethoxy-2-[3-(4-methoxyphenyl)-3-oxo-1-propenyl]pyridine] | 79.4
16 | CCOc1cnc(/C=C/C(=O)c2ccccc2)cc1O [Ex. 55, 5-Ethoxy-4-hydroxy-2-(^3-oxo-3-phenyl-1-propenyl]pyridine] | 97.5
17 | COc1ccc(OC)c(C(=O)/C=C/c2cc(O)c(OC)cn2)c1 [Ex. 57, 4-Hydroxy-5-methoxy-2-[3-(2,5-dimethoxyphenyl)-3-oxo-1-propenyl]pyridine] | 82.5
18 | COc1cnc(/C=C/C(=O)c2ccc(OC)c(OC)c2)cc1O [Ex. 58, 4-Hydroxy-5-methoxy-2-[3-(3,4-dimethoxyphenyl)-3-oxo-1-propenyl]pyridine hydrochloride] | 91.3
19 | COc1ccc(C(=O)/C=C/c2cc(O)c(OC)cn2)c(OC)c1 [Ex. 59, 4-Hydroxy-5-methoxy-2-[3-(2,4-dimethoxyphenyl)-3-oxo-1-propenyl]pyridine] | 78.9
20 | COc1cnc(/C=C/C(=O)c2ccccc2OC)cc1O [Ex. 60, 4-Hydroxy-5-methoxy-2-[3-(2-methoxyphenyl)-3-oxo-1-propenyl]pyridine] | 91.4
21 | COc1cnc(/C=C/C(=O)c2cc(OC)c(OC)c(OC)c2)cc1O [Ex. 61, 4-Hydroxy-5-methoxy-2-[3-oxo-3-(3,4,5-trimethoxyphenyl)-1-propenyl]pyridinehydrochloride] | 79.4
22 | COc1cnc(/C=C/C(=O)c2ccco2)cc1OC [Ex. 62, 4,5-Dimethoxy-2-[3-(2-furyl)-3-oxo-1-propenyl]pyridine] | 72.3
23 | COc1cnc(/C=C/C(=O)c2cccs2)cc1OC [Ex. 63, 4,5-Dimethoxy-2-[3-oxo-3-(2-thienyl)-1-propenyl]pyridine] | 81

Row | SMILES | inhibition at 1 µM [%]
24 | COc1cnc(/C=C/C(=O)c2ccsc2)cc1OC [Ex. 64, 4,5-Dimethoxy-2-[3-oxo-3-(3-thienyl)-1-propenyl]pyridine] | 82.1
25 | COc1cnc(/C=C/C(=O)c2ccsc2)cc1O [Ex. 65, 4-Hydroxy-5-methoxy-2-[3-oxo-3-(3-thienyl)-1-propenyl]pyridine] | 77.2
26 | COc1cnc(/C=C/C(=O)c2ccccn2)cc1OC [Ex. 66, 4,5-dimethoxy-2-[3-oxo-3-(2-pyridyl)-1-propenyl]pyridine] | 70.1
27 | COc1cnc(/C=C/C(=O)c2cccnc2)cc1OC [Ex. 67, 4,5-Dimethoxy-2-[3-oxo-3-(3-pyridyl)-1-propenyl]pyridine] | 77.9
28 | COc1cnc(/C=C/C(=O)c2ccncc2)cc1OC [Ex. 68, 4,5-Dimethoxy-2-[3-oxo-3-(4-pyridyl)-1-propenyl]pyridine] | 95.4
29 | CCOC(=O)CCCCCOc1cc(/C=C/C(=O)c2ccccn2)ncc1OC [Ex. 69, Ethyl 6-[5-methoxy-2-(3-oxo-3-(2-pyridyl)-1-propenyl]-4-pyridyloxy]hexanoate] | 73.1
30 | COc1cnc(/C=C/C(=O)C2CCCCC2)cc1O [Ex. 75, 2-(3-Cyclohexyl-3-oxo-1-propenyl)-4-hydroxy-5-methoxypyridine hydrochloride] | 90.6
31 | CCOC(=O)CCCOc1cc(/C=C/C(=O)C2CCCC2)ncc1OC [Ex. 79, Ethyl 4-[2-(3-cyclopentyl-3-oxo-1-propenyl)-5-methoxy-4-pyridyloxy]butanoate hyd rochloride] | 64.1
32 | CCOC(=O)CCCOc1cc(/C=C/C(=O)C2CCC2)ncc1OC [Ex. 80, Ethyl 4-[2-(3-cyclobutyl-3-oxo-1-propenyl)-5-methoxy-4-pyridyloxy]butanoatehydrochloride] | 69.2
33 | CCOC(=O)COc1cnc(/C=C/C(=O)c2ccccc2)cc1OC [Ex. 81, Ethyl [4-methoxy-6-(3-oxo-3-phenyl-1-propenyl)-3-pyridyloxy]acetate] | 72.7
34 | CCOC(=O)CCCOc1cnc(/C=C/C(=O)c2ccccc2)cc1OC [Ex. 82, Ethyl 4-[4-methoxy-6-(3-oxo-3-phenyl-1-propenyl)-3-pyridyloxy]butanoate] | 69.6
35 | CCOC(=O)CCCCCOc1cnc(/C=C/C(=O)c2ccccc2)cc1OC [Ex. 83, Ethyl 6-[4-methoxy-6-(3-oxo-3-phenyl-1-propenyl)-3-pyridyloxy]hexanoate] | 96.2
36 | CCOC(=O)CCCOc1cc(/C=C/C(=O)c2ccccc2)ncc1OCC [Ex. 84, Ethyl 4-[5-ethoxy-2-(3-oxo-3-phenyl-1-propenyl)-4-pyridyloxy]butanoate hydrochloride] | 89.4
37 | CCOC(=O)CCCCOc1cc(/C=C/C(=O)c2cc(OC)ccc2OC)ncc1OC [Ex. 89, Ethyl 5-[5-methoxy-2-(3-(2,5-dimethoxyphenyl)-3-oxo-1-propenyl)-4-pyridyloxy]pentanoate] | 82.1
38 | CCOC(=O)CCCOc1cc(/C=C/C(=O)c2ccccc2OC)ncc1OC [Ex. 93, Ethyl 4-[5-methoxy-2-(3-(2-methoxyphenyl)-3-oxo-7-propenyl)-4-pyridyloxy]butanoate hydrochloride] | 66
39 | CCOC(=O)CCCCCOc1cc(/C=C/C(=O)c2cc(OC)c(OC)c(OC)c2)ncc1OC [Ex. 101, Ethyl 6-[5-methoxy-2-(3-oxo-3-(3,4,5-trimethoxyphenyl)-1-propenyl)-4-pyridyloxy]hexanoate hydrochloride] | 95.6
40 | COc1cnc(/C=C/C(=O)c2cc(OC)c(OC)c(OC)c2)cc1OCCCCCCO [Ex. 102, 6-[5-Methoxy-2-(3-oxo-3-(3,4,5-trimethoxyphenyl)-1-propenyl)-4-pyridyloxy]hexyl alcohol hydrochloride] | 97.3
41 | COc1cnc(/C=C/C(=O)c2ccccc2)cc1OCCCCCC(=O)O [Ex. 103, 6-[5-Methoxy-2-(3-oxo-3-phenyl-1-propenyl)-4-pyridyloxy]hexanoic acid] | 72.4
42 | CCOc1cnc(/C=C/C(=O)c2ccccc2)cc1OCCCC(=O)O [Ex. 104, 4-[5-Ethoxy-2-(3-oxo-3-phenyl-1-propenyl)-4-pyridyloxy]butanoic acid hydrochloride] | 89.3
43 | COc1cnc(/C=C/C(=O)N2CCCCC2)cc1OC [Ex. 107, 4,5-dimethoxy-2-(3-oxo-3-piperidino-1-propenyl)pyridine hydrochloride] | 71.9
44 | COc1cnc(/C=C/C(=O)N2CCCC2)cc1OC [Ex. 108, 4,5-Dimethoxy-2-(3-oxo-3-pyrrolidino-1-propenyl)pyridine hydrochloride] | 78.5
45 | COc1cnc(/C=C/C(=O)N2CCCCCC2)cc1OC [Ex. 109, 4,5-Dimethoxy-2-[3-(1-azepanyl)-3-oxo-1-propenyl]pyridine hydrochloride] | 83.8
